# Test results from US10604526B2, “Chemokine receptor modulators and uses thereof” (RAPT THERAPEUTICS, INC., priority 2016, dated 2020).
# Molecular target: T1, hCCR4 (Homo sapiens, UniProt P51679)
# T1 sequence (P51679 1-360): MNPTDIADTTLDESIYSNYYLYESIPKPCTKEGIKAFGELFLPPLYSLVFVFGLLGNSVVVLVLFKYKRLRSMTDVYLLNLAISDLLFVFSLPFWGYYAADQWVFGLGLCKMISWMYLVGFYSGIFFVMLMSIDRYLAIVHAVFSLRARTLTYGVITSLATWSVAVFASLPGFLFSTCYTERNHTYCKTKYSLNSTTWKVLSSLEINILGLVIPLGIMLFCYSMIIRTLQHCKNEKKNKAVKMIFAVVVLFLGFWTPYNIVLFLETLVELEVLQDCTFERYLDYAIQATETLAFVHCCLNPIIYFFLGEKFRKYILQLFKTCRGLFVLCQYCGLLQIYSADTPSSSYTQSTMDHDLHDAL
# Assay: Calcium flux assay
# Type: cell-based
# Conditions: Chem5-hCCR4 cells, CCL22 at EC80 of 1.5 nM, FLIPR Calcium 6 dye; read-out: Potency (IC50)
# Method: Calcium Flux Assay. Compounds were evaluated in a calcium flux assay substantially performed as follows. Chem5-hCCR4 cells (EMD Millipore, Hayward, Calif.; HTS009C) were cultured under standard conditions and frozen in aliquots of 10×10^6 cells/mL. The day prior to compound testing, a vial was rapidly thawed and pipetted into 20 mL media (DMEM+10% FBS+1% Pen-Strep+1% L-glutamine). Cells were harvested by centrifugation and re-suspended in fresh culture medium. 25 μL of cell suspension was seeded into 384-well plates (Corning, Tewksbury, Mass.; CellBind with black wall/clear bottom). The plates were centrifuged at 300 g for 10 seconds and incubated overnight at 37° C. and 5% CO2. The day of compound testing, media was removed from the plates and 25 μL serum free media was added to each well. Plates were returned to the incubator for 2 h. 25 μL assay buffer (Hank's balanced salt solution+20 mM HEPES pH 7.4) containing FLIPR Calcium 6 dye (Molecular Devices, Sunnyvale, Calif.; # R8191) and probenecid (2.5 mM) was added to each well and incubated at 37° C. and 5% CO2 for 2 h. Compounds in DMSO were added to the plates using an HP D300e digital dispenser, and all wells were normalized to contain 0.25 μL (0.5%) DMSO. Plates were incubated for 1 hour at 37° C. and 5% CO2. CCL22 (Peprotech; Rockyhill, N.J.) was diluted in assay buffer containing 0.1% BSA to 7.5 nM (corresponding to 5×EC80 of 1.5 nM).
# Assay plates and working solution of CCL22 were transferred to the FlexStation plate reader (Molecular Devices) at 37° C. for 5 min of equilibration. Fluorescence recordings at 485 excitation/525 emission were performed at 2.5 second intervals. At t=16 seconds, 12.5 μL of CCL22 solution was added to each well and reads continued for 30 seconds at 2.5 second intervals. The minimum fluorescence (Fmin) was calculated by averaging the reads prior to ligand addition and the change in fluorescence (ΔF) was calculated by subtracting the Fmin from the average of the reads following ligand addition. The response ΔF/Fmin was plotted as a function of the compound concentration and the IC50 values were determined by non-linear regression analysis using a 4-parameter fit in either PRISM software (GraphPad; La Jolla, Calif.) or Dotmatics Browser.
row,Structure (SMILES),IC50
1,"Cc1nn([C@H](C)c2ccc(Cl)cc2Cl)c2nc(N3CC([C@@H]4CCCN(CC(=O)O)C4)C3)cnc12 (single isomer, unassigned) [Example 2]",> 500 nM
2,"Cc1nn([C@H](C)c2ccc(Cl)cc2Cl)c2nc(N3CC([C@H]4CCCN(CC(=O)O)C4)C3)cnc12 (single isomer, unassigned) [Example 3]",> 500 nM
3,"Cc1nn([C@H](C)c2ccc(Cl)cc2Cl)c2nc(N3CC([C@@H]4CCCN(CCS(N)(=O)=O)C4)C3)cnc12 (single isomer, unassigned) [Example 5]",> 500 nM
4,"Cc1nn([C@H](C)c2ccc(Cl)cc2Cl)c2nc(N3CC([C@@H]4CCCN(CCC(=O)O)C4)C3)cnc12 (single isomer, unassigned) [Example 9]",> 500 nM
5,"Cc1nn([C@H](C)c2ccc(Cl)cc2Cl)c2nc(N3CC([C@@H]4CCCN(CCCC(=O)O)C4)C3)cnc12 (single isomer, unassigned) [Example 11]",100 to 500 nM
6,"Cc1nn([C@H](C)c2ccc(Cl)cc2Cl)c2nc(N3CC([C@@H]4CCCN(CCC(N)=O)C4)C3)cnc12 (single isomer, unassigned) [Example 12]",100 to 500 nM
7,"Cc1nn([C@H](C)c2ccc(Cl)cc2Cl)c2nc(N3CC([C@@H]4CCCN(CCCO)C4)C3)cnc12 (single isomer, unassigned) [Example 15]",100 to 500 nM
8,"C[C@H](c1ccc(Cl)cc1Cl)n1nc(C#N)c2ncc(N3CC([C@H]4CCCN(CCC(N)=O)C4)C3)nc21 (single isomer, unassigned) [Example 26]",< 100 nM
9,"CC(O)CN1CCC[C@H](C2CN(c3cnc4c(C#N)nn([C@H](C)c5ccc(Cl)cc5Cl)c4n3)C2)C1 (single isomer, unassigned) [Example 28]",< 100 nM
10,"CC(O)CN1CCC[C@H](C2CN(c3cnc4c(C#N)nn([C@H](C)c5ccc(Cl)cc5Cl)c4n3)C2)C1 (single isomer, unassigned) [Example 29]",< 100 nM
11,"CC(O)CN1CCC[C@@H](C2CN(c3cnc4c(C#N)nn([C@H](C)c5ccc(Cl)cc5Cl)c4n3)C2)C1 (single isomer, unassigned) [Example 30]",< 100 nM
12,"CC(O)CN1CCC[C@@H](C2CN(c3cnc4c(C#N)nn([C@H](C)c5ccc(Cl)cc5Cl)c4n3)C2)C1 (single isomer, unassigned) [Example 31]",< 100 nM
13,"C[C@H](c1ccc(Cl)cc1Cl)n1nc(C(N)=O)c2ncc(N3CC([C@@H]4CCCN(CCCC(=O)O)C4)C3)nc21 (single isomer, unassigned) [Example 32]",100 to 500 nM
14,"C[C@H](c1ccc(Cl)cc1Cl)n1nc(C(N)=O)c2ncc(N3CC([C@H]4CCCN(CCCC(=O)O)C4)C3)nc21 (single isomer, unassigned) [Example 33]",< 100 nM
15,"C[C@H](c1ccc(Cl)cc1Cl)n1nc(C#N)c2ncc(N3CC(C4CCCN(CCO)C4)C3)nc21 (single isomer, unassigned) [Example 35]",< 100 nM
16,"CC(c1ccc(Cl)cc1Cl)n1nc(C#N)c2ncc(N3CC([C@@H]4CCCN(CCO)C4)C3)nc21 (single isomer, unassigned) [Example 36]",< 100 nM
17,"Cc1nn([C@H](C)c2ccc(Cl)cc2Cl)c2nc(N3CC([C@H]4CCCN(CCO)C4)C3)ncc12 (single isomer, unassigned) [Example 38]",< 100 nM

# Next, values leading:
row,IC50,Structure (SMILES)
1,< 100 nM,"C[C@H](c1ccc(Cl)cc1Cl)n1nc(C#N)c2ncc(N3CC(C4CCCN(C5CCOCC5)C4)C3)nc21 (mixture of isomers) [Example 62, 1-((R)-1-(2,4-dichlorophenyl)ethyl)-6-(3-((R)-1-(tetrahydro-2H-pyran-4-yl)piperidin-3-yl)azetidin-1-yl)-1H-pyrazolo[3,4-b]pyrazine-3-carbonitrile and 1-((R)-1-(2,4-dichlorophenyl)ethyl)-6-(3-((S)-1-(tetrahydro-2H-pyran-4-yl)piperidin-3-yl)azetidin-1-yl)-1H-pyrazolo[3,4-b]pyrazine-3-carbonitrile]"
2,< 100 nM,"CC(=O)NCCN1CCCC(C2CN(c3cnc4c(C)nn([C@H](C)c5ccc(Cl)cc5Cl)c4n3)C2)C1 (mixture of isomers) [Example 63, N-(2-((R)-3-(1-(1-((R)-1-(2,4-dichlorophenyl)ethyl)-3-methyl-1H-pyrazolo[3,4-b]pyrazin-6-yl)azetidin-3-yl)piperidin-1-yl)ethyl)acetamide and N-(2-((S)-3-(1-(1-((R)-1-(2,4-dichlorophenyl)ethyl)-3-methyl-1H-pyrazolo[3,4-b]pyrazin-6-yl)azetidin-3-yl)piperidin-1-yl)ethyl)acetamide]"
3,< 100 nM,"Cc1nn([C@H](C)c2ccc(Cl)cc2Cl)c2nc(N3CC(C4CCCN(CCNS(C)(=O)=O)C4)C3)cnc12 (mixture of isomers) [Example 64, N-[2-[(R)-3-[1-[1-[(1R)-1-(2,4-dichlorophenyl)ethyl]-3-methyl-pyrazolo[3,4-b]pyrazin-6-yl]azetidin-3-yl]-1-piperidyl]ethyl]methanesulfonamide and N-[2-[(S)-3-[1-[1-[(1R)-1-(2,4-dichlorophenyl)ethyl]-3-methyl-pyrazolo[3,4-b]pyrazin-6-yl]azetidin-3-yl]-1-piperidyl]ethyl]methanesulfonamide]"
4,< 100 nM,"Cc1nn([C@H](C)c2ccc(Cl)cc2Cl)c2nc(N3CC(C4CCCN(CCNS(=O)(=O)C(C)C)C4)C3)cnc12 (mixture of isomers) [Example 65, N-(2-((R)-3-(1-(1-((R)-1-(2,4-dichlorophenyl)ethyl)-3-methyl-1H-pyrazolo[3,4-b]pyrazin-6-yl)azetidin-3-yl)piperidin-1-yl)ethyl)propane-2-sulfonamide and N-(2-((S)-3-(1-(1-((R)-1-(2,4-dichlorophenyl)ethyl)-3-methyl-1H-pyrazolo[3,4-b]pyrazin-6-yl)azetidin-3-yl)piperidin-1-yl)ethyl)propane-2-sulfonamide]"
5,< 100 nM,"COC(=O)NCCN1CCCC(C2CN(c3cnc4c(C)nn([C@H](C)c5ccc(Cl)cc5Cl)c4n3)C2)C1 (mixture of isomers) [Example 67, Methyl (2-((R)-3-(1-(1-((R)-1-(2,4-dichlorophenyl)ethyl)-3-methyl-1H-pyrazolo[3,4-b]pyrazin-6-yl)azetidin-3-yl)piperidin-1-yl)ethyl)carbamate and methyl (2-((S)-3-(1-(1-((R)-1-(2,4-dichlorophenyl)ethyl)-3-methyl-1H-pyrazolo[3,4-b]pyrazin-6-yl)azetidin-3-yl)piperidin-1-yl)ethyl)carbamate]"
6,< 100 nM,"Cc1nn([C@H](C)c2ccc(Cl)cc2Cl)c2nc(N3CC([C@H]4CCCN(CCS(N)(=O)=O)C4)C3)cnc12 (single isomer, unassigned) [Example 6]"
7,< 100 nM,"Cc1nn([C@H](C)c2ccc(Cl)cc2Cl)c2nc(N3CC([C@H]4CCCN(CCC(=O)O)C4)C3)cnc12 (single isomer, unassigned) [Example 8]"
8,< 100 nM,"Cc1nn([C@H](C)c2ccc(Cl)cc2Cl)c2nc(N3CC([C@H]4CCCN(CCCC(=O)O)C4)C3)cnc12 (single isomer, unassigned) [Example 10]"
9,< 100 nM,"Cc1nn([C@H](C)c2ccc(Cl)cc2Cl)c2nc(N3CC([C@H]4CCCN(CCC(N)=O)C4)C3)cnc12 (single isomer, unassigned) [Example 13]"
10,< 100 nM,"Cc1nn([C@H](C)c2ccc(Cl)cc2Cl)c2nc(N3CC([C@H]4CCCN(CCCO)C4)C3)cnc12 (single isomer, unassigned) [Example 14]"
11,< 100 nM,"C[C@H](c1ccc(Cl)cc1Cl)n1nc(C#N)c2ncc(N3CC([C@H]4CCCN(CCCC(=O)O)C4)C3)nc21 (single isomer, unassigned) [Example 18]"
12,< 100 nM,"C[C@H](c1ccc(Cl)cc1Cl)n1nc(C#N)c2ncc(N3CC([C@@H]4CCCN(CCCC(=O)O)C4)C3)nc21 (single isomer, unassigned) [Example 19]"
13,< 100 nM,"C[C@H](c1ccc(Cl)cc1Cl)n1nc(C#N)c2ncc(N3CC([C@@H]4CCCN(CCC(N)=O)C4)C3)nc21 (single isomer, unassigned) [Example 25]"
